This is an account of results in patent US6593311B2, “Apoptosis inducers” (Takara Shuzo Co., Ltd., priority 1996, dated 2003).

The subject of experiment [1] is Human acute lymphatic leukemia cells MOLT-3. The experiment in a line: DNA ladder detection by agarose gel electrophoresis in MOLT-3 cells. The settings on record: Example 23; 10 μg/ml solution of actinomycin D; 20 hours.
The subject of experiment [2] is Human premyelocytic leukemia cells HL-60. Briefly: DNA ladder detection by agarose gel electrophoresis in HL-60 cells.
Experiment [3] shares this test system. Briefly: Viable count (Trypan Blue) and microscopic morphology of HL-60 cells. Format: cell-based. The note with it: Example 25; 10 μg/ml solution of actinomycin D; 20 hours.
Experiment [4] concerns Human colonic cancer cells HCT 116. The experiment in a line: Viable count (Trypan Blue) and morphology of HCT 116 cells. The class given is cell-based. The settings on record: Example 28; for cell morphology (characteristics of apoptosis) / change in cell count / viable count versus incubation time curve (FIG. 29): 0.5 mg/ml, autoclaved; for change in cell count / viable count versus incubation time curve (FIG. 29): 1 to 4 days; for effects of inducing apoptosis, filter-treated samples: 5 mg/ml solutions in PBS treated with a filter. On the procedure:
Then the suspension was pipetted into a 24-well plate (mfd. by FALCON) at a ratio of 1.8 ml/well. […] As a control, PBS alone was added in the same amount and incubation was effected in the same manner. 1, 2, 3 and 4 days after the initiation of the incubation, the viable cells were counted in accordance with the method described in “Soshiki Baiyo no Gijutsu” (second ed.), Asakura Shuppan, ed. by Nippon Soshiki Baiyo Gakkai, 26-28 (1990), namely, by the Trypan Blue staining method on a counting chamber.
In this figure, the abscissa refers to the incubation time (day) while the ordinate refers to the viable count (×10^4 cells /2 ml) in the culture medium. In FIG. 29, the open circle stands for the control (no addition), the solid circle stands for the sulfated-fucose-containing polysaccharide preparation obtained in Example 1 and the solid square stands for the sulfated-fucose-containing polysaccharide mixture obtained in Example 1.
Then the suspension was pipetted into a 24-well plate (mfd. by FALCON) at a ratio of 1.8 ml/well. […] As a control, PBS alone was added in the same amount and incubation was effected in the same manner. After the initiation of the incubation, the viable cells were counted with the passage of time in accordance with the method described in “Soshiki Baiyo no Gijutsu” (second ed.), Asakura Shuppan, ed. by Nippon Soshiki Baiyo Gakkai, 26-28 (1990), namely, by the Trypan Blue staining method on a counting chamber.

Experiment [5] has as its system Human acute lymphatic leukemia cells MOLT-3. The experiment in a line: Viable count (Trypan Blue) of MOLT-3 cells. The settings on record: Example 24. Format: cell-based. As for the experimental part: Then the suspension was pipetted into a 24-well plate (mfd. by FALCON) at a ratio of 1.8 ml/well. […] As a control, PBS alone was added in the same amount and incubation was effected in the same manner. 2, 4, 6 and 8 days after the initiation of the incubation, the cells were counted by the Trypan Blue staining method.
In this figure, the abscissa refers to the incubation time (day) while the ordinate refers to the viable count (×10^4 cells /2 ml) in the culture medium. In FIG. 28, the open circle stands for the control (no addition), the solid circle stands for the sulfated-fucose-containing polysaccharide-F obtained in Example 12, the open square stands for the sulfated-fucose-containing polysaccharide obtained in Example 1, the open triangle stands for that obtained in Example 17 and the solid square stands for that obtained in Example 15.

Numbered stars: 1 amine (or outer) side, 2 acyl side, 3 side chain; on linkers, the order of the positions; unused ones are H or OH. Bridge positions count the residues as written; N and C are the ends. Square brackets hold non-standard residues; d marks the D form. Peptide text beside a SMILES is read from it. I, II: the chains in the order shown. Actinocin(9to1) = Cc1c2oc3c(C)ccc(C(=O)[*:1])c3nc-2c(C(=O)[*:2])c(N)c1=O; NMeV = CN[C@H](C(=O)O)C(C)C; Sar = CNCC(=O)O

`Cc1c2oc3c(C)ccc(C(=O)N[C@@H]4C(=O)N[C@H](C(C)C)C(=O)N5CCC[C@H]5C(=O)N(C)CC(=O)N(C)[C@@H](C(C)C)C(=O)O[C@@H]4C)c3nc-2c(C(=O)N[C@@H]2C(=O)N[C@H](C(C)C)C(=O)N3CCC[C@H]3C(=O)N(C)CC(=O)N(C)[C@@H](C(C)C)C(=O)O[C@@H]2C)c(N)c1=O` [actinomycin D] (I: T[dV]P[Sar][NMeV] / II: T[dV]P[Sar][NMeV]; ester I:1-I:C, II:1-II:C; linker I:N-II:N via Actinocin(9to1)): the DNA ladders entry in experiment [1] is reported as “DNA ladders were observed”; in experiment [2] (Example 20, 10 μg/ml solution of actinomycin D, 20 hours), “DNA ladders were observed”; in experiment [2] (Example 35, Actinomycin D as substitute for F-Fd-4), “DNA ladders were observed”. For the same molecule, in experiment [3], the “cell morphology (shrinkage and fragmentation)” value was “the shrinkage and fragmentation of the cells were observed”.

With heparin, in experiment [4], the “cell morphology (characteristics of apoptosis)” value is “showed characteristics of apoptosis such as the shrinkage and fragmentation of the cells”; the “change in cell count” value was “little increase or a decrease in cell count”; the “viable count versus incubation time curve (FIG. 29)” value was “substantially the same curve as the one of the sulfated-fucose-containing polysaccharide preparation of Example 1”; the “effects of inducing apoptosis, filter-treated samples” value is “the same results were obtained”.

On to dextran sulfate, for which, in experiment [5] (0.5 mg/ml in PBS, autoclave 121° C. 20 minutes), the “effects of inducing apoptosis, autoclaved samples” value is given as “the same results were obtained”. The “apoptosis induction and growth inhibition (viable count, FIG. 28)” value in experiment [5] (0.2 ml of 0.5 mg/ml solution per 1.8 ml well (text: concentration of 0.5 mg/ml), 2, 4, 6 and 8 days) was “induce the apoptosis of the MOLT-3 cells and considerably inhibit the growth of these cells”. Moreover, the “viable count versus incubation time curve (FIG. 28)” value in experiment [5] (2 to 8 days) is on record as “substantially the same curve as the one obtained by using the sulfated-fucose-containing polysaccharide of Example 15”. In experiment [4], the “cell morphology (characteristics of apoptosis)” value was “showed characteristics of apoptosis such as the shrinkage and fragmentation of the cells”; the “change in cell count” value is given as “little increase or a decrease in cell count”; the “viable count versus incubation time curve (FIG. 29)” value was “substantially the same curve as the one of the sulfated-fucose-containing polysaccharide preparation of Example 1”; the “effects of inducing apoptosis, filter-treated samples” value is reported as “the same results were obtained”.
